Data: PubChem BioAssay AID248 (DTP/NCI, 2004)
“And” between values parts separate entries of the source, which are not always exact repeats. Identical values can stand only once. Toxic doses and inconclusive results are not listed.

Test system: L1210 leukemia ip in BDF1 mice, survival T/C
Test: NCI In Vivo Anticancer Drug Screen. Data for tumor model L1210 Leukemia (intraperitoneal) in B6D2F1 (BDF1) mice
Conditions: endpoint: mean survival time, higher = longer survival
Procedure, shortened: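 Ratio derived from survival: compound-dosed mice over vehicle-dosed mice, all bearing a transplantable tumor.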

[1] = dose: 100.0 mg/kg/injection, schedule: Q01DX009 (ip), vehicle: saline with Tween-80
[2] = dose: 100.0 mg/kg/injection, schedule: Q04DX003 (ip), vehicle: saline with Tween-80
[3] = dose: 200.0 mg/kg/injection, schedule: Q01DX009 (ip), vehicle: saline with Tween-80
[4] = dose: 200.0 mg/kg/injection, schedule: Q04DX003 (ip), vehicle: saline with Tween-80
[5] = dose: 400.0 mg/kg/injection, schedule: Q01DX009 (ip), vehicle: saline with Tween-80
[6] = dose: 400.0 mg/kg/injection, schedule: Q04DX003 (ip), vehicle: saline with Tween-80
[7] = dose: 50.0 mg/kg/injection, schedule: Q01DX009 (ip), vehicle: saline with Tween-80
[8] = dose: 100.0 mg/kg/injection, schedule: Q01DX001 (ip), vehicle: other
[9] = dose: 400.0 mg/kg/injection, schedule: Q01DX001 (ip), vehicle: other
[10] = dose: 100.0 mg/kg/injection, schedule: Q01DX009 (ip), vehicle: Klucel (hydroxypropylcellulose) (HPC)
[11] = dose: 100.0 mg/kg/injection, schedule: Q04DX003 (ip), vehicle: Klucel (hydroxypropylcellulose) (HPC)
[12] = dose: 200.0 mg/kg/injection, schedule: Q04DX003 (ip), vehicle: Klucel (hydroxypropylcellulose) (HPC)
[13] = dose: 100.0 mg/kg/injection, schedule: Q01DX001 (ip), vehicle: saline with Tween-80
[14] = dose: 200.0 mg/kg/injection, schedule: Q01DX009 (ip), vehicle: Klucel (hydroxypropylcellulose) (HPC)
[15] = dose: 400.0 mg/kg/injection, schedule: Q01DX009 (ip), vehicle: Klucel (hydroxypropylcellulose) (HPC)
[16] = dose: 400.0 mg/kg/injection, schedule: Q04DX003 (ip), vehicle: Klucel (hydroxypropylcellulose) (HPC)

c1ccc(Nc2ccc3ccccc3c2)cc1
T/C [1]: 97 % of control
T/C [2]: 92 % of control
T/C [3]: 89 % of control
T/C [4]: 98 % of control
T/C [5]: 92 % of control
T/C [6]: 98 % of control

C1=CC2C=CC1C2
T/C [1]: 97 % of control
T/C [2]: 89 % of control
T/C [3]: 92 % of control
T/C [4]: 92 % of control
T/C [5]: 89 % of control
T/C [6]: 89 % of control

Cc1[nH]c(=O)[nH]c(=O)c1N(CCF)CCCl
T/C (dose: 5.0 mg/kg/injection, schedule: Q01DX009 (ip), vehicle: Klucel (hydroxypropylcellulose) (HPC)): 104 % of control and 107 % of control
T/C (dose: 5.0 mg/kg/injection, schedule: Q01DX009 (ip), vehicle: saline): 106 % of control
T/C (dose: 9.0 mg/kg/injection, schedule: Q01DX009 (ip), vehicle: Klucel (hydroxypropylcellulose) (HPC)): 108 % of control
T/C (dose: 10.0 mg/kg/injection, schedule: Q01DX009 (ip), vehicle: Klucel (hydroxypropylcellulose) (HPC)): 112 % of control
T/C (dose: 10.0 mg/kg/injection, schedule: Q01DX009 (ip), vehicle: saline): 112 % of control
T/C (dose: 14.0 mg/kg/injection, schedule: Q01DX009 (ip), vehicle: Klucel (hydroxypropylcellulose) (HPC)): 120 % of control
T/C (dose: 20.0 mg/kg/injection, schedule: Q01DX009 (ip), vehicle: Klucel (hydroxypropylcellulose) (HPC)): 110 % of control
T/C (dose: 20.0 mg/kg/injection, schedule: Q01DX009 (ip), vehicle: saline): 124 % of control
T/C (dose: 23.0 mg/kg/injection, schedule: Q01DX009 (ip), vehicle: Klucel (hydroxypropylcellulose) (HPC)): 123 % of control
T/C (dose: 23.0 mg/kg/injection, schedule: Q04DX003 (ip), vehicle: Klucel (hydroxypropylcellulose) (HPC)): 108 % of control
T/C (dose: 39.0 mg/kg/injection, schedule: Q01DX009 (ip), vehicle: Klucel (hydroxypropylcellulose) (HPC)): 94 % of control
T/C (dose: 39.0 mg/kg/injection, schedule: Q04DX003 (ip), vehicle: Klucel (hydroxypropylcellulose) (HPC)): 116 % of control
T/C (dose: 65.0 mg/kg/injection, schedule: Q01DX001 (ip), vehicle: Klucel (hydroxypropylcellulose) (HPC)): 104 % of control
T/C (dose: 108.0 mg/kg/injection, schedule: Q01DX001 (ip), vehicle: Klucel (hydroxypropylcellulose) (HPC)): 110 % of control
T/C (dose: 108.0 mg/kg/injection, schedule: Q04DX003 (ip), vehicle: Klucel (hydroxypropylcellulose) (HPC)): 96 % of control
T/C (dose: 180.0 mg/kg/injection, schedule: Q01DX001 (ip), vehicle: Klucel (hydroxypropylcellulose) (HPC)): 120 % of control
T/C (dose: 180.0 mg/kg/injection, schedule: Q04DX003 (ip), vehicle: Klucel (hydroxypropylcellulose) (HPC)): 96 % of control

O=NN(CCF)C(=O)NC1CCSCC1
T/C (dose: 24.0 mg/kg/injection, schedule: Q01DX001 (ip), vehicle: other): 334 % of control
T/C (dose: 36.0 mg/kg/injection, schedule: Q01DX001 (ip), vehicle: other): 344 % of control
T/C (dose: 54.0 mg/kg/injection, schedule: Q01DX001 (ip), vehicle: other): 344 % of control

Nc1ccc(C(=O)CC(O)(C(F)(F)F)C(F)(F)F)cc1
T/C (dose: 25.0 mg/kg/injection, schedule: Q01DX009 (ip), vehicle: saline with Tween-80): 92 % of control
T/C [7]: 94 % of control
T/C [1]: 100 % of control and 92 % of control
T/C [3]: 95 % of control

c1ccc(NN(CN(Nc2ccccc2)c2ccccc2)c2ccccc2)cc1
T/C [8]: 95 % of control
T/C [9]: 89 % of control

Cc1cccc(N=P(c2ccccc2)(c2ccccc2)c2ccccc2)c1
T/C (dose: 50.0 mg/kg/injection, schedule: Q01DX009 (ip), vehicle: Klucel (hydroxypropylcellulose) (HPC)): 96 % of control
T/C [10]: 88 % of control
T/C [11]: 95 % of control
T/C [12]: 96 % of control

O=[N+]([O-])c1ccc(N/N=C\c2ccc(OCCOCCCl)cc2)c([N+](=O)[O-])c1
T/C (dose: 25.0 mg/kg/injection, schedule: Q01DX001 (ip), vehicle: saline with Tween-80): 94 % of control
T/C (dose: 50.0 mg/kg/injection, schedule: Q01DX001 (ip), vehicle: saline with Tween-80): 86 % of control
T/C [13]: 94 % of control and 92 % of control

CCOC(=O)NC(=S)[S][Sb]([S]C(=S)NC(=O)OCC)[S]c1nc2ccc(N=Nc3ccc(NS(=O)(=O)c4ccc(NC(=O)C(Sc5ncnc6nc[nH]c56)SC5N=C=Nc6nc[nH]c65)cc4)cc3)cc2s1 (stereo not drawn)
T/C (dose: 75.0 mg/kg/injection, schedule: Q04DX003 (ip), vehicle: saline): 100 % of control
T/C (dose: 150.0 mg/kg/injection, schedule: Q04DX003 (ip), vehicle: saline): 91 % of control
T/C (dose: 300.0 mg/kg/injection, schedule: Q04DX003 (ip), vehicle: saline): 98 % of control

O=C(O)CCC(=O)Nc1ccc(S(=O)(=O)Nc2nccs2)cc1
T/C (dose: 3.5 mg/kg/injection, schedule: Q01DX009 (ip), vehicle: Klucel (hydroxypropylcellulose) (HPC)): 93 % of control
T/C (dose: 5.3 mg/kg/injection, schedule: Q01DX009 (ip), vehicle: Klucel (hydroxypropylcellulose) (HPC)): 93 % of control
T/C (dose: 8.0 mg/kg/injection, schedule: Q01DX009 (ip), vehicle: Klucel (hydroxypropylcellulose) (HPC)): 91 % of control
T/C [10]: 94 % of control
T/C [11]: 101 % of control
T/C [14]: 98 % of control
T/C [12]: 103 % of control
T/C [15]: 94 % of control
T/C [16]: 97 % of control

CC1CCNC(C(C)C)CC1 (stereo not drawn)
T/C (dose: 100.0 mg/kg/injection, schedule: Q04DX002 (ip), vehicle: saline): 96 % of control
T/C (dose: 200.0 mg/kg/injection, schedule: Q04DX002 (ip), vehicle: saline): 115 % of control

COC(=O)C1c2ccccc2-c2ccccc21
T/C [7]: 97 % of control
T/C [1]: 107 % of control
T/C [3]: 96 % of control

CCCCCCCCCCCCCCCCC1(c2ccccc2)NC(=O)NC1=O (stereo not drawn)
T/C [11]: 93 % of control
T/C [12]: 95 % of control
T/C [16]: 98 % of control

CO/C=C(\C)C(=O)O
T/C [8]: 102 % of control
T/C (dose: 200.0 mg/kg/injection, schedule: Q01DX001 (ip), vehicle: other): 98 % of control
T/C [9]: 93 % of control

COc1cccc(C2CCCCC2O)c1 (stereo not drawn)
T/C [7]: 90 % of control
T/C [1]: 93 % of control
T/C [3]: 96 % of control

COc1ccc2c(c1OC)CC[N+]1=C3CCCCC3=C(N)CC21 (stereo not drawn)
T/C [13]: 97 % of control
T/C (dose: 200.0 mg/kg/injection, schedule: Q01DX001 (ip), vehicle: saline with Tween-80): 97 % of control
T/C (dose: 400.0 mg/kg/injection, schedule: Q01DX001 (ip), vehicle: saline with Tween-80): 96 % of control

N=C(N)c1cccc(NC(=O)c2ccc(C(=O)Nc3cccc(C(=N)N)c3)c([N+](=O)[O-])c2)c1
T/C (dose: 1.0 mg/kg/injection, schedule: Q01DX015 (ip), vehicle: water): 96 % of control
T/C (dose: 2.0 mg/kg/injection, schedule: Q01DX015 (ip), vehicle: water): 96 % of control
T/C (dose: 4.0 mg/kg/injection, schedule: Q01DX015 (ip), vehicle: water): 102 % of control
T/C (dose: 8.0 mg/kg/injection, schedule: Q01DX015 (ip), vehicle: water): 102 % of control and 109 % of control
T/C (dose: 16.0 mg/kg/injection, schedule: Q01DX015 (ip), vehicle: water): 115 % of control

O=C(CN(Cc1ccccc1)Cc1ccccc1)c1ccccc1
T/C (dose: 100.0 mg/kg/injection, schedule: Q04DX003 (ip), vehicle: DMSO): 103 % of control

CCN(CC)CC(N)=O
T/C (dose: 100.0 mg/kg/injection, schedule: Q04DX003 (ip), vehicle: saline): 103 % of control
T/C (dose: 200.0 mg/kg/injection, schedule: Q04DX003 (ip), vehicle: saline): 103 % of control
T/C (dose: 400.0 mg/kg/injection, schedule: Q04DX003 (ip), vehicle: saline): 111 % of control

c1ccc(-c2cccc[c]2[Hg][c]2ccccc2-c2ccccc2)cc1
T/C (dose: 100.0 mg/kg/injection, schedule: Q01DX001 (ip), vehicle: carboxymethylcellulose (CMC)): 96 % of control
T/C (dose: 200.0 mg/kg/injection, schedule: Q01DX001 (ip), vehicle: carboxymethylcellulose (CMC)): 93 % of control
T/C (dose: 400.0 mg/kg/injection, schedule: Q01DX001 (ip), vehicle: carboxymethylcellulose (CMC)): 93 % of control

CCOC(=O)C1(C)C(=O)CC2c3nc4ccccc4cc3CN2C1=O (stereo not drawn)
T/C [10]: 109 % of control
T/C [11]: 107 % of control
T/C [14]: 113 % of control
T/C [12]: 100 % of control
T/C [15]: 92 % of control
T/C [16]: 97 % of control

Cc1ccc(S(=O)(=O)N/N=C/c2ccc(C)s2)cc1
T/C [2]: 95 % of control
T/C [4]: 91 % of control
T/C [6]: 87 % of control

CCCCOP1(=O)C=C(C)CC1 (stereo not drawn)
T/C [2]: 90 % of control
T/C [4]: 97 % of control
T/C [6]: 92 % of control
